# Measured values published in paper PMC8829089, “The Pseudomonas aeruginosa homeostasis enzyme AlgL clears the periplasmic space of accumulated alginate during polymer biosynthesis” (The Journal of Biological Chemistry, 2022).
# Target: T1, AlgL (NHis6-AlgL^28–362) (Pseudomonas aeruginosa, UniProt Q06749)
# T1 construct: residues 28-362, signal peptide removed, N-terminal His6 tag (pET28b), expressed in E. coli; one molecule in the asymmetric unit
# Assay: X-ray crystal structure, […] Å
# Assay type: binding
# Conditions: cocrystallized with 8 mM mannuronate trisaccharide (ManA3); only one sugar monomer seen in density, subsite +1 of active site
# T1 sequence (Q06749 28-362): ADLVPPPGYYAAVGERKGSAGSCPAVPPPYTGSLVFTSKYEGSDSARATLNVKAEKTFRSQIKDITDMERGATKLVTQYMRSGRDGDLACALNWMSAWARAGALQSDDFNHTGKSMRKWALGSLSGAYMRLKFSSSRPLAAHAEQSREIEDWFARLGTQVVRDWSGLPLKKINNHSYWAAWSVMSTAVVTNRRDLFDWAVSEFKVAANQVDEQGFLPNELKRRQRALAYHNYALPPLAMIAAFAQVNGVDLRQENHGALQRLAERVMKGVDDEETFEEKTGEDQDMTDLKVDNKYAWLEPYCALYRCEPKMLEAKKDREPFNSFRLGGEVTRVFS
smiles,measurement,value
"O=C(O)[C@H]1OC(O)[C@@H](O)[C@@H](O)[C@@H]1O (stereo partly shown) [ManA, mannuronate]","X-ray crystal structure, 1.64 Å",we were only able to detect electron density for a sugar monomer
